The structures appear in SMILES notation.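 96-well plates; 48 h exposure; 5 concentrations. Endpoints by linear interpolation between flanking doses. Not reached: highest tested concentration assigned. Here, GI50 denotes the concentration required for 50% inhibition of growth. TGI marks complete inhibition of growth.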

Among the test systems are CAKI-1 renal; CCRF-CEM leukemia; OVCAR-8 ovarian; UACC-257 melanoma; EKVX NSCLC; HCT-15 colon; LOX IMVI melanoma; MDA-N; K-562 leukemia; NCI-H522 lung.
Experiment in all cases: DTP human tumour cell line panel, 48 h

As for `Cc1ccc(C(=O)C2CC3(CCC2(O)c2ccc(C)cc2)CC(=O)Nc2ccccc2C3=O)cc1` (centres undefined), the TGI in the experiment with CAKI-1 renal, in the experiment with CCRF-CEM leukemia, in the experiment with OVCAR-8 ovarian, with UACC-257 melanoma, in the experiment with EKVX NSCLC and in the experiment with HCT-15 colon was > 100 µM throughout. Also, the TGI with LOX IMVI melanoma and with MDA-N was > 100 µM in each case.
Regarding `Cc1ccc(C)c(C(=O)CC2OC(O)C(Cl)C2Cl)c1` (centres undefined), the TGI in the experiment on CAKI-1 renal was 84.4 µM; with CCRF-CEM leukemia, > 100 µM; with OVCAR-8 ovarian it was 33.6 µM; in the experiment on UACC-257 melanoma it was > 100 µM; with EKVX NSCLC, > 100 µM; with HCT-15 colon, > 100 µM. In addition, the total growth inhibition concentration (TGI) in the experiment with K-562 leukemia was > 100 µM; in the experiment with LOX IMVI melanoma, 48.4 µM; with NCI-H522 lung, 29.4 µM.
With `CCCCCCCCCCCCCCCC(=O)OCC(COP(=O)(O)OCCNC(=O)CCSSc1ccccn1)OC(=O)CCCCCCCCCCCCCCC` (centres undefined), the TGI with CAKI-1 renal, in the experiment with CCRF-CEM leukemia, with OVCAR-8 ovarian, with UACC-257 melanoma, in the experiment on EKVX NSCLC and in the experiment with HCT-15 colon was > 100 µM each time. Moreover, the TGI with K-562 leukemia, in the experiment on MDA-N and in the experiment on NCI-H522 lung was > 100 µM in each case.
`CCCCCNC(=O)OC1CCn2c1nc1c2C(=O)C(C)=C(N2CC2)C1=O` (centres undefined): the total growth inhibition concentration (TGI) in the experiment on CAKI-1 renal is 2.9 µM; in the experiment with CCRF-CEM leukemia, > 100 µM; with OVCAR-8 ovarian, 5.31 µM; in the experiment on UACC-257 melanoma it was 3.22 µM; in the experiment on HCT-15 colon, 4.45 µM; in the experiment with K-562 leukemia, 7.75 µM. Moreover, the total growth inhibition concentration (TGI) in the experiment on LOX IMVI melanoma is 1.07 µM; in the experiment on MDA-N it was 2.88 µM; in the experiment with NCI-H522 lung, 3.4 µM.
For `Oc1[nH]c2ccccc2c1N=Nc1nc(-c2ccccc2)cs1`, the total growth inhibition concentration (TGI) in the experiment on CAKI-1 renal was 39.8 µM; in the experiment on OVCAR-8 ovarian it was > 100 µM; with UACC-257 melanoma it was > 100 µM; with EKVX NSCLC it was 76.7 µM; with HCT-15 colon, > 100 µM; in the experiment on LOX IMVI melanoma, > 100 µM. The TGI in the experiment with MDA-N is > 100 µM.
Turning to `C/C(=C\CNc1ncnc2c1ncn2CCC#N)CO`, the TGI in the experiment on CAKI-1 renal, in the experiment with CCRF-CEM leukemia, with OVCAR-8 ovarian, in the experiment with UACC-257 melanoma, with EKVX NSCLC and in the experiment with K-562 leukemia was > 100 µM each time. Further, the total growth inhibition concentration (TGI) in the experiment with LOX IMVI melanoma, with MDA-N and with NCI-H522 lung was > 100 µM each time.
For the molecule `Nc1nc2c(c(-c3ccc(F)cc3)n1)COC/C2=C\c1ccc(F)cc1`, the TGI with CAKI-1 renal, with CCRF-CEM leukemia, with OVCAR-8 ovarian, in the experiment on UACC-257 melanoma, with EKVX NSCLC and in the experiment with HCT-15 colon was > 100 µM in each case. Besides, the TGI in the experiment on K-562 leukemia was > 100 µM; with MDA-N, > 100 µM; with NCI-H522 lung, 22.7 µM.
Take `O=C1Cc2c([nH]c3c(Br)cccc23)-c2ccccc2N1`: the TGI in the experiment with CCRF-CEM leukemia is 35.6 µM; in the experiment on OVCAR-8 ovarian, > 100 µM; with UACC-257 melanoma it was > 100 µM; in the experiment with EKVX NSCLC, > 100 µM; in the experiment on HCT-15 colon it was > 100 µM; with K-562 leukemia, 56.5 µM. Further, the TGI in the experiment with LOX IMVI melanoma and in the experiment on MDA-N was > 100 µM in each case.
Turning to `CC1SCCc2nc3ccccc3n21` (centres undefined), the TGI in the experiment on CAKI-1 renal, with CCRF-CEM leukemia, with OVCAR-8 ovarian, in the experiment with UACC-257 melanoma, with EKVX NSCLC and in the experiment on HCT-15 colon was > 100 µM in each case. Moreover, the total growth inhibition concentration (TGI) with K-562 leukemia, in the experiment with LOX IMVI melanoma and in the experiment with MDA-N was > 100 µM each time.
As to `Cc1cc(N(CCCl)CCCl)ccc1/C=N\NC(=O)c1cccnc1`, the GI50 in the experiment on CAKI-1 renal is 5.46 µM; in the experiment on CCRF-CEM leukemia, 9.23 µM; in the experiment on OVCAR-8 ovarian, 25.9 µM; with UACC-257 melanoma it was 6.96 µM; in the experiment on EKVX NSCLC, 48.8 µM; in the experiment on HCT-15 colon, 21.9 µM. The results for the GI50 with K-562 leukemia, with LOX IMVI melanoma and with NCI-H522 lung were 20.1 µM, 15.6 µM and 15.2 µM, respectively. For the same molecule, the TGI was 45 µM in the experiment with CAKI-1 renal; > 100 µM with CCRF-CEM leukemia; > 100 µM with OVCAR-8 ovarian; 34.9 µM in the experiment on UACC-257 melanoma; > 100 µM with EKVX NSCLC; > 100 µM in the experiment with HCT-15 colon. Besides, the TGI in the experiment with K-562 leukemia is > 100 µM; in the experiment on LOX IMVI melanoma, 99.4 µM; with NCI-H522 lung, 32.3 µM.
`CCN(CCCl)c1ccc(NC(=O)c2cc(C(=O)NCCN(C)C)cc(C(=O)Nc3ccc(N(CC)CCCl)cc3)c2)cc1`: the TGI in the experiment on CAKI-1 renal is > 100 µM; in the experiment with CCRF-CEM leukemia it was 3.27 µM; in the experiment on OVCAR-8 ovarian it was 25.2 µM; in the experiment with UACC-257 melanoma, 65.6 µM; with HCT-15 colon, > 100 µM; in the experiment with LOX IMVI melanoma, 12.8 µM. Also, the total growth inhibition concentration (TGI) with MDA-N is 29.6 µM; in the experiment on NCI-H522 lung it was 11.4 µM.
For `Cc1cc(NS(=O)(=O)c2ccc(NC(NC(=O)OC(C)C)(C(F)(F)F)C(F)(F)F)cc2)nc(C)n1`, the total growth inhibition concentration (TGI) in the experiment with CAKI-1 renal, with CCRF-CEM leukemia, in the experiment with OVCAR-8 ovarian, in the experiment with UACC-257 melanoma, in the experiment on EKVX NSCLC and with HCT-15 colon was > 100 µM in each case. Besides, the TGI with K-562 leukemia, in the experiment with LOX IMVI melanoma and in the experiment with MDA-N was > 100 µM in each case.
As to `O=C(C[N+]1(c2ccccc2)CCOCC1)c1ccccc1`, the concentration for total growth inhibition (TGI) in the experiment with CAKI-1 renal, in the experiment on OVCAR-8 ovarian, in the experiment on UACC-257 melanoma, in the experiment with EKVX NSCLC, with HCT-15 colon and in the experiment with K-562 leukemia was > 100 µM throughout. Also, the TGI in the experiment with LOX IMVI melanoma, with MDA-N and in the experiment with NCI-H522 lung was > 100 µM in each case.
For `Nc1nc(N)c2ncn(Cc3ccccc3)c2n1`, the TGI in the experiment on CAKI-1 renal, with CCRF-CEM leukemia, in the experiment on OVCAR-8 ovarian, in the experiment with UACC-257 melanoma, in the experiment with EKVX NSCLC and in the experiment with HCT-15 colon was > 100 µM throughout. The TGI in the experiment with MDA-N and with NCI-H522 lung was > 100 µM each time.

(Values after PubChem BioAssay (NCI).)
